Measurements taken from patent US7713942B2, “Cage-like microparticle complexes comprising sterols and saponins for delivery of polynucleotides” (Nordic Vaccine Technology A/S, priority 2001, dated 2010).
Values joined by “and” are separate entries in the source; they are usually repeats but may differ in a detail not shown here. Equal values may be shown once.

Assays:
[1] = dose-dependent, apparently nonspecific; cited from earlier work
[2] = End-point-dialysis of ^14C-Mega 10 from ISCOM-matrix; conditions: for Amount of detergent remaining in bags: Room temperature, daily replacement of water
Procedure: In order to further investigate if Mega 10 could be completely removed from ISCOM-matrix a second experiment was designed. Here, four dialysis bags containing 1 ml of ISCOM-matrix prepared with 3.3% w/v ^12C/^14C-Mega 10 was placed in individual beakers containing 1000 ml of water. Dialysis was performed at room temperature with stirring. Each day one beaker was taken and the contents of the dialysis bag counted after which the dialysis buffer (water) of the remaining beakers was replaced.

[3] = Equilibrium-dialysis of ^14C-Mega 10 from ISCOM-matrix; conditions: water not replaced
Procedure: ISCOMs were prepared by combining Quil A, cholesterol and phophatidylcholine with the component to be inserted (e.g. lipopeptide). ISCOMs were allowed to form for 4 hours with stirring at 35° C. (room temperature for experiments with ^12C/^14C-Mega 10) followed by dialysis against phosphate buffered saline (pH 7.2) in Slide-A-Lyzer® cassettes (Pierce, Rockford, Ill.) or dialysis tubing (Visking, London, UK), MW cut-off 10,000. The concentration in the reaction mixture of Quil A ranged 0.9 mg/ml to 1.3 mg/ml for the different preparations (see Section 3), whereas the concentration of cholesterol and phophatidylcholine was 0.03% w/v in all experiments. The final concentration of Mega 10 was 4% w/v unless otherwise stated.
In the first experiment the kinetics of the Mega 10-dialysis was investigated. ISCOM-matrix was formed in the presence of 7% w/v ^12C/^14C-Mega 10 and Quil A at a concentration of 0.9 mg/ml. From a total volume of 18.3 ml sixteen aliquots of 1 ml were taken and set up for dialysis against water in 8 beakers of 1000 ml (2×1 ml bags per 1000 ml water). Four beakers were placed at room temperature and four at 4° C. with stirring. On each of the following days one beaker from both temperatures were taken and the contents of the individual dialysis bags (2×2 bags) counted after addition of water in order to compensate for differences in volume. Table 1 lists the amount of ^14C-Mega 10 remaining in each bag after dialysis for a certain period of time given as the percentage of cpm (counts per minute) relative to the initial ^14C-contents. […] However, the same end-point concentration of ^14C-Mega 10 was reached within four days (0.4-1%) despite of temperature. Anticipating that Mega 10 diffuses freely across the dialysis membrane one would expect the contents of dialysis bags to represent 0.51% of the total ^14C-Mega 10, as the volume of two bags (from one beaker) at equilibrium was 5.1 ml leaving approx. 995 ml in the beaker (5.1 ml/995 ml*100%=0.51%). And it is concluded that although dialysis at room temperature is faster than dialysis at 4° C. both methods are equally efficient in removing Mega 10 from ISCOM-matrix.

Row | Amount of detergent remaining in bags ([2]; 1 day) [%] | Amount of detergent remaining in bags ([2]; 2 days) [%] | Amount of detergent remaining in bags ([2]; 3 days) [%] | Amount of detergent remaining in bags ([2]; 4 days) [%] | original amount of detergent remaining within the dialysis bag ([2]; at equilibrium, with replacement of water) [%] | Amount of detergent remaining in dialysis bags ([3]; Room temperature, 1 day) | Amount of detergent remaining in dialysis bags ([3]; Room temperature, 2 days) | Amount of detergent remaining in dialysis bags ([3]; Room temperature, 3 days) | SMILES | immunomodulating activity [1] | Amount of detergent remaining in dialysis bags ([3]; 4° C., 1 day) | Amount of detergent remaining in dialysis bags ([3]; 4° C., 2 days) | Amount of detergent remaining in dialysis bags ([3]; 4° C., 3 days) | Amount of detergent remaining in dialysis bags ([3]; 4° C., 4 days) | Amount of detergent remaining in dialysis bags ([3]; Room temperature, 4 days)
1 | – | – | – | – | – | – | – | – | CC(=O)O[C@@H]1[C@H](O[C@@H]2O[C@@H](CO)[C@H](O)[C@H]2O)[C@@H](O[C@@H]2O[C@@H](C)[C@H](O[C@@H]3OC[C@@H](O)[C@H](O)[C@H]3O)[C@@H](O)[C@H]2O)[C@H](OC(=O)[C@]23CCC(C)(C)C[C@H]2C2=CC[C@@H]4[C@@]5(C)CC[C@H](O[C@@H]6O[C@H](C(=O)O)[C@@H](O)[C@H](O[C@@H]7OC[C@@H](O)[C@H](O)[C@H]7O)[C@H]6O[C@@H]6O[C@H](CO)[C@H](O)[C@H](O)[C@H]6O)[C@@](C)(C=O)[C@H]5CC[C@@]4(C)[C@]2(C)CC3)O[C@@H]1C [Squarroside A] | a suppressive effect at concentrations in the μg range and a stimulant effect in the pg range | – | – | – | – | –
2 | 0.23 | 0.07 | 0.06 | 0.07 | 0.07 | 2.1 percentage of initial cpm | 0.9 percentage of initial cpm | 0.9 percentage of initial cpm | CCCCCCCCCC(=O)N(C)CC(O)C(O)C(O)C(O)CO (centres unmarked) [^14C-Mega 10, N-Decanoyl-N-methylglucamide] | – | 14.5 percentage of initial cpm and 13.5 percentage of initial cpm | 2.2 percentage of initial cpm and 2.3 percentage of initial cpm | 1.0 percentage of initial cpm and 1.3 percentage of initial cpm | 0.7 percentage of initial cpm and 1.1 percentage of initial cpm | 0.7 percentage of initial cpm and 0.4 percentage of initial cpm
